# Reference: patent publication US6737383B1, “Herbicidal oxadiazolidines” (priority 1999, dated 2004)
# Key:
# surinam grass = experiment: Test B pre/postemergence surinam grass; type: in vivo, Brachiaria decumbens
# In short: (§1)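 Test chemicals in a non-phytotoxic solvent mixture with surfactant were sprayed preemergence onto planted seeds and postemergence onto plants 2 to 18 cm tall (1- to 4-leaf stage). After twelve to sixteen days in a greenhouse, injury was visually rated against untreated controls from 0 (no effect) to 10 (complete control).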
# velvetleaf = experiment: Test B pre/postemergence velvetleaf; type: in vivo, Abutilon theophrasti
# In short: as §1
# morningglory = experiment: Test B pre/postemergence morningglory; type: in vivo, Ipomoea hederacea
# In short: as §1
# corn = experiment: Test B pre/postemergence corn; type: in vivo, Zea mays
# In short: as §1
# wild oat = experiment: Test B pre/postemergence wild oat; type: in vivo, Avena fatua
# In short: as §1
# wheat = experiment: Test B pre/postemergence wheat; type: in vivo, Triticum aestivum
# In short: as §1
# sugar beet = experiment: Test B pre/postemergence sugar beet; type: in vivo, Beta vulgaris
# In short: as §1
# blackgrass = experiment: Test B pre/postemergence blackgrass; type: in vivo, Alopecurus myosuroides
# In short: as §1
# pigweed = experiment: Test B pre/postemergence pigweed; type: in vivo, Amaranthus retroflexus
# In short: as §1
# purple nutsedge = experiment: Test B pre/postemergence purple nutsedge; type: in vivo, Cyperus rotundus
# In short: as §1
# cocklebur = experiment: Test B pre/postemergence cocklebur; type: in vivo, Xanthium strumarium
# In short: as §1
# soybean = experiment: Test B pre/postemergence soybean; type: in vivo, Glycine max
# In short: as §1
# giant foxtail = experiment: Test B pre/postemergence giant foxtail; type: in vivo, Setaria faberii
# In short: as §1
# rape = experiment: Test B pre/postemergence rape; type: in vivo, Brassica napus
# In short: as §1
# bedstraw = experiment: Test B pre/postemergence bedstraw; type: in vivo, Galium aparine
# In short: as §1
# crabgrass = experiment: Test B pre/postemergence crabgrass; type: in vivo, Digitaria sanguinalis
# In short: as §1
# [1] = Postemergence, Rate 62 g/ha, scale 0 to 10, 0 is no effect, 10 is complete control
# [2] = Postemergence, Rate 125 g/ha, scale of 0 to 10 where 0 is no effect and 10 is complete control
# [3] = Postemergence, Rate 250 g/ha, scale of 0 to 10, 0 is no effect, 10 is complete control
# [4] = Postemergence, Rate 500 g/ha, scale of 0 to 10 where 0 is no effect and 10 is complete control
# [5] = Preemergence, Rate 62 g/ha, scale of 0 to 10 where 0 is no effect and 10 is complete control
# [6] = Preemergence, Rate 125 g/ha, scale of 0 to 10 where 0 is no effect and 10 is complete control
# [7] = Preemergence, Rate 250 g/ha, scale 0 to 10 (0 no effect, 10 complete control)
# [8] = Preemergence, Rate 500 g/ha, scale of 0 to 10 where 0 is no effect and 10 is complete control
structure (smiles),measurement,setting,value
C=C(Cn1c(=O)on(C(=O)N(c2ccccc2)C(C)C)c1=O)C(C)(C)C [Compound 648],"Plant response rating, B. signalgrass",surinam grass; [1],0
same,"Plant response rating, B. signalgrass",surinam grass; [2],0
same,B. signalgrass plant response rating,surinam grass; [3],0
same,"Plant response rating, B. signalgrass",surinam grass; [4],0
same,B. signalgrass plant response rating,surinam grass; [5],0
same,B. signalgrass plant response rating,surinam grass; [6],0
same,"Plant response rating, B. signalgrass",surinam grass; [7],0
same,"Plant response rating, B. signalgrass",surinam grass; [8],5
same,"Plant response rating, Velvetleaf",velvetleaf; [1],0
same,Velvetleaf plant response rating,velvetleaf; [2],0
same,Velvetleaf plant response rating,velvetleaf; [5],0
same,Velvetleaf plant response rating,velvetleaf; [6],0
same,"Plant response rating, Velvetleaf",velvetleaf; [7],0
same,"Plant response rating, Velvetleaf",velvetleaf; [8],0
same,"Plant response rating, Morningglory",morningglory; [1],6
same,Morningglory plant response rating,morningglory; [2],10
same,Morningglory plant response rating,morningglory; [3],10
same,"Plant response rating, Morningglory",morningglory; [4],10
same,Morningglory plant response rating,morningglory; [5],0
same,Morningglory plant response rating,morningglory; [6],0
same,"Plant response rating, Morningglory",morningglory; [7],0
same,"Plant response rating, Morningglory",morningglory; [8],0
same,"Plant response rating, Corn",corn; [1],0
same,Corn plant response rating,corn; [2],0
same,Corn plant response rating,corn; [3],0
same,"Plant response rating, Corn",corn; [4],0
same,Corn plant response rating,corn; [5],0
same,Corn plant response rating,corn; [6],0
same,"Plant response rating, Corn",corn; [7],0
same,"Plant response rating, Corn",corn; [8],0
same,"Plant response rating, Wild oats",wild oat; [1],0
same,Wild oats plant response rating,wild oat; [2],0
same,Wild oats plant response rating,wild oat; [5],0
same,Wild oats plant response rating,wild oat; [6],0
same,"Plant response rating, Wild oats",wild oat; [7],0
same,"Plant response rating, Wild oats",wild oat; [8],0
same,"Plant response rating, Wheat",wheat; [1],0
same,Wheat plant response rating,wheat; [2],0
same,Wheat plant response rating,wheat; [5],0
same,Wheat plant response rating,wheat; [6],0
same,"Plant response rating, Wheat",wheat; [7],0
same,"Plant response rating, Wheat",wheat; [8],0
same,"Plant response rating, Sugarbeets",sugar beet; [1],0
same,Sugarbeets plant response rating,sugar beet; [2],0
same,Sugarbeets plant response rating,sugar beet; [5],0
same,Sugarbeets plant response rating,sugar beet; [6],0
same,"Plant response rating, Sugarbeets",sugar beet; [7],0
same,"Plant response rating, Sugarbeets",sugar beet; [8],0
same,"Plant response rating, Blackgrass",blackgrass; [1],0
same,Blackgrass plant response rating,blackgrass; [2],0
same,Blackgrass plant response rating,blackgrass; [3],0
same,"Plant response rating, Blackgrass",blackgrass; [4],0
same,Blackgrass plant response rating,blackgrass; [5],0
same,Blackgrass plant response rating,blackgrass; [6],0
same,"Plant response rating, Blackgrass",blackgrass; [7],2
same,"Plant response rating, Blackgrass",blackgrass; [8],5
same,"Plant response rating, Redroot pigweed",pigweed; [1],0
same,Redroot pigweed plant response rating,pigweed; [2],3
same,Redroot pigweed plant response rating,pigweed; [5],0
same,Redroot pigweed plant response rating,pigweed; [6],0
same,"Plant response rating, Redroot pigweed",pigweed; [7],0
same,"Plant response rating, Redroot pigweed",pigweed; [8],2
same,"Plant response rating, Nutsedge",purple nutsedge; [1],0
same,Nutsedge plant response rating,purple nutsedge; [2],0
same,"Plant response rating, Nutsedge",purple nutsedge; [4],0
same,Nutsedge plant response rating,purple nutsedge; [5],0
same,Nutsedge plant response rating,purple nutsedge; [6],0
same,"Plant response rating, Nutsedge",purple nutsedge; [7],0
same,"Plant response rating, Nutsedge",purple nutsedge; [8],0
same,"Plant response rating, Cocklebur",cocklebur; [1],0
same,Cocklebur plant response rating,cocklebur; [2],0
same,Cocklebur plant response rating,cocklebur; [3],0
same,"Plant response rating, Cocklebur",cocklebur; [4],2
same,Cocklebur plant response rating,cocklebur; [5],0
same,Cocklebur plant response rating,cocklebur; [6],0
same,"Plant response rating, Cocklebur",cocklebur; [8],0
same,"Plant response rating, Soybean",soybean; [1],0
same,Soybean plant response rating,soybean; [2],2
same,Soybean plant response rating,soybean; [5],0
same,Soybean plant response rating,soybean; [6],0
same,"Plant response rating, Soybean",soybean; [7],0
same,"Plant response rating, Soybean",soybean; [8],0
same,"Plant response rating, Giant foxtail",giant foxtail; [1],0
same,Giant foxtail plant response rating,giant foxtail; [2],0
same,Giant foxtail plant response rating,giant foxtail; [3],0
same,"Plant response rating, Giant foxtail",giant foxtail; [4],3
same,Giant foxtail plant response rating,giant foxtail; [5],5
same,Giant foxtail plant response rating,giant foxtail; [6],9
same,"Plant response rating, Giant foxtail",giant foxtail; [7],9
same,"Plant response rating, Giant foxtail",giant foxtail; [8],9
same,"Plant response rating, Rape",rape; [1],0
same,Rape plant response rating,rape; [2],0
same,"Plant response rating, Rape",rape; [4],2
same,Rape plant response rating,rape; [5],0
same,Rape plant response rating,rape; [6],0
same,"Plant response rating, Rape",rape; [7],0
same,"Plant response rating, Rape",rape; [8],0
same,Bedstraw plant response rating,bedstraw; [2],0
same,Bedstraw plant response rating,bedstraw; [5],0
same,Bedstraw plant response rating,bedstraw; [6],0
same,"Plant response rating, Bedstraw",bedstraw; [7],0
same,"Plant response rating, Bedstraw",bedstraw; [8],0
same,"Plant response rating, Crabgrass",crabgrass; [1],0
same,Crabgrass plant response rating,crabgrass; [2],0
same,Crabgrass plant response rating,crabgrass; [3],0
same,"Plant response rating, Crabgrass",crabgrass; [4],7
same,Crabgrass plant response rating,crabgrass; [5],0
same,Crabgrass plant response rating,crabgrass; [6],8
same,"Plant response rating, Crabgrass",crabgrass; [7],9
same,"Plant response rating, Crabgrass",crabgrass; [8],9
CCn1ncc(Cn2c(=O)on(C(=O)N(c3ccc(Cl)cc3)C(C)C)c2=O)c1Cl [Compound 684],B. signalgrass plant response rating,surinam grass; [5],0
same,"Plant response rating, B. signalgrass",surinam grass; [6],0
same,"Plant response rating, B. signalgrass",surinam grass; [7],4
same,"Plant response rating, B. signalgrass",surinam grass; [8],5
same,Velvetleaf plant response rating,velvetleaf; [5],0
same,"Plant response rating, Velvetleaf",velvetleaf; [6],0
same,Morningglory plant response rating,morningglory; [5],0
same,"Plant response rating, Morningglory",morningglory; [6],0
same,Corn plant response rating,corn; [5],0
same,"Plant response rating, Corn",corn; [6],0
same,"Plant response rating, Corn",corn; [7],0
same,Wild oats plant response rating,wild oat; [5],0
same,"Plant response rating, Wild oats",wild oat; [6],0
same,Wheat plant response rating,wheat; [5],0
same,"Plant response rating, Wheat",wheat; [6],0
same,Sugarbeets plant response rating,sugar beet; [5],0
same,"Plant response rating, Sugarbeets",sugar beet; [6],0
same,Blackgrass plant response rating,blackgrass; [5],1
same,"Plant response rating, Blackgrass",blackgrass; [6],3
same,"Plant response rating, Blackgrass",blackgrass; [7],4
same,"Plant response rating, Blackgrass",blackgrass; [8],7
same,Redroot pigweed plant response rating,pigweed; [5],0
same,"Plant response rating, Redroot pigweed",pigweed; [6],0
same,Nutsedge plant response rating,purple nutsedge; [5],0
same,"Plant response rating, Nutsedge",purple nutsedge; [6],0
same,Cocklebur plant response rating,cocklebur; [5],0
same,"Plant response rating, Cocklebur",cocklebur; [6],0
same,"Plant response rating, Cocklebur",cocklebur; [7],0
same,"Plant response rating, Cocklebur",cocklebur; [8],0
same,Soybean plant response rating,soybean; [5],0
same,"Plant response rating, Soybean",soybean; [6],0
same,Giant foxtail plant response rating,giant foxtail; [5],7
same,"Plant response rating, Giant foxtail",giant foxtail; [6],9
same,Rape plant response rating,rape; [5],0
same,"Plant response rating, Rape",rape; [6],0
same,Bedstraw plant response rating,bedstraw; [5],0
same,"Plant response rating, Bedstraw",bedstraw; [6],0
same,"Plant response rating, Bedstraw",bedstraw; [7],0
same,"Plant response rating, Bedstraw",bedstraw; [8],0
same,Crabgrass plant response rating,crabgrass; [5],3
same,"Plant response rating, Crabgrass",crabgrass; [6],7
same,"Plant response rating, Crabgrass",crabgrass; [7],9
CCC(C)N(C(=O)n1oc(=O)n(C(C)C)c1=O)c1ccc(F)cc1 (centres unmarked) [Compound 689],B. signalgrass plant response rating,surinam grass; [5],2
same,"Plant response rating, B. signalgrass",surinam grass; [6],4
same,"Plant response rating, B. signalgrass",surinam grass; [7],9
same,"Plant response rating, B. signalgrass",surinam grass; [8],10
same,Velvetleaf plant response rating,velvetleaf; [5],2
same,"Plant response rating, Velvetleaf",velvetleaf; [6],3
same,Morningglory plant response rating,morningglory; [5],0
same,"Plant response rating, Morningglory",morningglory; [6],3
same,Corn plant response rating,corn; [5],0
same,"Plant response rating, Corn",corn; [6],6
same,"Plant response rating, Corn",corn; [7],9
same,Wild oats plant response rating,wild oat; [5],7
same,"Plant response rating, Wild oats",wild oat; [6],9
same,Wheat plant response rating,wheat; [5],0
same,"Plant response rating, Wheat",wheat; [6],0
same,Sugarbeets plant response rating,sugar beet; [5],0
same,"Plant response rating, Sugarbeets",sugar beet; [6],2
same,Blackgrass plant response rating,blackgrass; [5],9
same,"Plant response rating, Blackgrass",blackgrass; [6],9
same,"Plant response rating, Blackgrass",blackgrass; [7],10
same,"Plant response rating, Blackgrass",blackgrass; [8],10
same,Redroot pigweed plant response rating,pigweed; [5],3
same,"Plant response rating, Redroot pigweed",pigweed; [6],7
same,Nutsedge plant response rating,purple nutsedge; [5],0
same,"Plant response rating, Nutsedge",purple nutsedge; [6],0
same,Cocklebur plant response rating,cocklebur; [5],0
same,"Plant response rating, Cocklebur",cocklebur; [6],0
same,"Plant response rating, Cocklebur",cocklebur; [7],0
same,"Plant response rating, Cocklebur",cocklebur; [8],0
same,Soybean plant response rating,soybean; [5],0
same,"Plant response rating, Soybean",soybean; [6],0
same,Giant foxtail plant response rating,giant foxtail; [5],10
same,"Plant response rating, Giant foxtail",giant foxtail; [6],10
same,Rape plant response rating,rape; [5],0
same,"Plant response rating, Rape",rape; [6],0
same,Bedstraw plant response rating,bedstraw; [5],0
same,"Plant response rating, Bedstraw",bedstraw; [6],0
same,"Plant response rating, Bedstraw",bedstraw; [7],7
same,"Plant response rating, Bedstraw",bedstraw; [8],5
same,Crabgrass plant response rating,crabgrass; [5],9
same,"Plant response rating, Crabgrass",crabgrass; [6],9
same,"Plant response rating, Crabgrass",crabgrass; [7],10
